Results reported in ChEMBL document CHEMBL1127628, “A new arylpiperazine antipsychotic with high D2/D3/5-HT1A/alpha 1A-adrenergic affinity and a low potential for extrapyramidal effects” (J Med Chem, 1994).
One block for each compound: values may come before it.

Assays:
[1] = biological target: T1, Adrenergic receptor alpha-2 (Rattus norvegicus, UniProt P22086+P19328+P22909)
T1 sequence (P22086 whole entry): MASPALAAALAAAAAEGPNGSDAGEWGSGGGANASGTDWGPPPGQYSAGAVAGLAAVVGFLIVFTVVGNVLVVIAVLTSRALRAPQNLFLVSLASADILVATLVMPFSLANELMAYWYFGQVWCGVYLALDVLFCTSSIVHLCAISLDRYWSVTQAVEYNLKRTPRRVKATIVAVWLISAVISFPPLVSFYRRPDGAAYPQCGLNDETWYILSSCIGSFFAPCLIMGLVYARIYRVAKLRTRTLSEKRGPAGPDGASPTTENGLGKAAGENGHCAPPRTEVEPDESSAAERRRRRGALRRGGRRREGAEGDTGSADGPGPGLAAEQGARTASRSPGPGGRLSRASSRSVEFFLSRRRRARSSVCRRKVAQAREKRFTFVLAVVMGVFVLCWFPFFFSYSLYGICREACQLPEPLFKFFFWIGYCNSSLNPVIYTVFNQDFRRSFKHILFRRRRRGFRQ
T1 sequence (P19328 whole entry): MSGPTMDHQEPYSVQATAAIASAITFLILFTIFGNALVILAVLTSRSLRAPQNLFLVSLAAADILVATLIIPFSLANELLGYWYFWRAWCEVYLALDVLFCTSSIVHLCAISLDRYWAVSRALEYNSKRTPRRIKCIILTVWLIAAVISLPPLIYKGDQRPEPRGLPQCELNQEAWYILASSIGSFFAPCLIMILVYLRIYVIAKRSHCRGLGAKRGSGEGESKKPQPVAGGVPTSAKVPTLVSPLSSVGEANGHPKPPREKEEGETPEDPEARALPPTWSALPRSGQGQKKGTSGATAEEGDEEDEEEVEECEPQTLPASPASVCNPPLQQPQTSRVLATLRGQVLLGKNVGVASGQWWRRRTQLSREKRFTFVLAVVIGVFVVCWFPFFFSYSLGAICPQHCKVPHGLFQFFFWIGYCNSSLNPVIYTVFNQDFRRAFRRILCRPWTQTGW
T1 sequence (P22909 whole entry): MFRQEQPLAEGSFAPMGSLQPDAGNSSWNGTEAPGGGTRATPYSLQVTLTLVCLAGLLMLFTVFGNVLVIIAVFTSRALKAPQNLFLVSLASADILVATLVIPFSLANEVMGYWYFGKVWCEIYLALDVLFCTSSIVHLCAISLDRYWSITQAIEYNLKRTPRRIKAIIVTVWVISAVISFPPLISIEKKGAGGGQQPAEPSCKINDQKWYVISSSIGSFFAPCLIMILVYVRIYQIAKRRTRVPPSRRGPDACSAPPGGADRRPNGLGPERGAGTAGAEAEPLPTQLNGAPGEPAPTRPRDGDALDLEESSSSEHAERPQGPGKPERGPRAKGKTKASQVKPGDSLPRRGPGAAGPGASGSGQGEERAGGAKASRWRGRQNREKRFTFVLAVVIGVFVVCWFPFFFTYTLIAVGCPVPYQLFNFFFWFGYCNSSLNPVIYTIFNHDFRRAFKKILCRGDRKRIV
Description: Binding affinity towards alpha-2 adrenergic receptors in rat brain synaptosomal preparations

[2] = biological target: T2, 5-hydroxytryptamine receptor 1A (Rattus norvegicus, UniProt P19327)
T2 sequence (P19327 whole entry): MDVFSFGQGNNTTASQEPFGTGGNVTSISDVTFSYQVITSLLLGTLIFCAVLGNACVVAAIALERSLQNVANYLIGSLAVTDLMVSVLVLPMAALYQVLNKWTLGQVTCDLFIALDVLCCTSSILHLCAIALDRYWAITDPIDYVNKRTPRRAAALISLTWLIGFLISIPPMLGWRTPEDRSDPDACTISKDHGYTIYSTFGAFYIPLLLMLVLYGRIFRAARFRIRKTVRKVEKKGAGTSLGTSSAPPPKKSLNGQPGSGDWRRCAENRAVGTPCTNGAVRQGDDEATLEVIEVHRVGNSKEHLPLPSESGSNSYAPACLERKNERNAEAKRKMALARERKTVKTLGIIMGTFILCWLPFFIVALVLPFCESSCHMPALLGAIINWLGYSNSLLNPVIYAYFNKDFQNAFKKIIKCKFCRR
Description: Binding affinity towards 5-hydroxytryptamine 1A receptor of rat brain synaptosomal preparations

D(2) dopamine receptor = D(2) dopamine receptor (Rattus norvegicus, UniProt P61169); assay: Binding affinity towards dopamine D2 receptors in rat brain synaptosomal preparations; type: tissue-based
D(2) dopamine receptor, sequence (P61169 whole entry): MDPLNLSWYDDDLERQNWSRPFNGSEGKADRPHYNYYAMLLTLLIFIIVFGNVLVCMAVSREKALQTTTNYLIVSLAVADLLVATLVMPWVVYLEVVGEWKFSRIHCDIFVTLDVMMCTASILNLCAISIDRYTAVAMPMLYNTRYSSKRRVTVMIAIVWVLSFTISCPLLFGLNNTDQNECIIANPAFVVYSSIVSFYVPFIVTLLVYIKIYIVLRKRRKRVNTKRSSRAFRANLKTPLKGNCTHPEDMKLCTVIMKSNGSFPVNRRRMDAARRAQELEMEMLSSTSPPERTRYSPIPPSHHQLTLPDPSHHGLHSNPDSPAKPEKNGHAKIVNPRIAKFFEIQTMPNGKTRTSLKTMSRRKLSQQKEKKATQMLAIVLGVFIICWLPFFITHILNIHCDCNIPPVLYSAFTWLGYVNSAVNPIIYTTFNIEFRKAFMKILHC

[3] = biological target: T3, Adrenergic receptor alpha-1 (Rattus norvegicus, UniProt P15823+P23944+P43140); assay: Binding affinity towards alpha-1 adrenergic receptors in rat brain synaptosomal preparations; type: tissue-based
T3 sequence (P15823 whole entry): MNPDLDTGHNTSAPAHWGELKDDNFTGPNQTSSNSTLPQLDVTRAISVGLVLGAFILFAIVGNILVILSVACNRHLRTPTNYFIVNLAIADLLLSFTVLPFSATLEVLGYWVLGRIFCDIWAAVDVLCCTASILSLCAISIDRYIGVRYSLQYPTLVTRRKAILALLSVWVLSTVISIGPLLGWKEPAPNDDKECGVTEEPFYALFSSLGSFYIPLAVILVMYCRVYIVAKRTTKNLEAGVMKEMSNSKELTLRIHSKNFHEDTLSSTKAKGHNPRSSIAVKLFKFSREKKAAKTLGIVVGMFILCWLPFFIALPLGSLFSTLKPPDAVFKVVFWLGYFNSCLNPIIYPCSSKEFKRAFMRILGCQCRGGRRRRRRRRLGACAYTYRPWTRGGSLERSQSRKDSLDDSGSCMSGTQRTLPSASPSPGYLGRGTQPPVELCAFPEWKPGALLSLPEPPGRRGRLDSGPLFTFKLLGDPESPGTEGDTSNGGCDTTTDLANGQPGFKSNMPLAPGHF
T3 sequence (P23944 whole entry): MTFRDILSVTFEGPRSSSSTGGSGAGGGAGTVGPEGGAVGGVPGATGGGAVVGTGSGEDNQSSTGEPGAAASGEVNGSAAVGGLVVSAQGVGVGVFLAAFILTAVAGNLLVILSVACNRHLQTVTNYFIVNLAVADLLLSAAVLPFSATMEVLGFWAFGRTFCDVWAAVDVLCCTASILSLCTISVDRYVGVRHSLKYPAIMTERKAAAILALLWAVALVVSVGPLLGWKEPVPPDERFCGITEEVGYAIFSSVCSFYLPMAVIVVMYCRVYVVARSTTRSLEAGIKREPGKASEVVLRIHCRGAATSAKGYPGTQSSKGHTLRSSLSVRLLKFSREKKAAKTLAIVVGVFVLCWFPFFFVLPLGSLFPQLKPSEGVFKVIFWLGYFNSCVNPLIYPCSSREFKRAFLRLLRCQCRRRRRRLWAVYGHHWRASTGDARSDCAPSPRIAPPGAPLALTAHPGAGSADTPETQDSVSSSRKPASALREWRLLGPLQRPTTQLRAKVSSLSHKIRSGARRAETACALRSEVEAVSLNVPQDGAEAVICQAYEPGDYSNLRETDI
T3 sequence (P43140 whole entry): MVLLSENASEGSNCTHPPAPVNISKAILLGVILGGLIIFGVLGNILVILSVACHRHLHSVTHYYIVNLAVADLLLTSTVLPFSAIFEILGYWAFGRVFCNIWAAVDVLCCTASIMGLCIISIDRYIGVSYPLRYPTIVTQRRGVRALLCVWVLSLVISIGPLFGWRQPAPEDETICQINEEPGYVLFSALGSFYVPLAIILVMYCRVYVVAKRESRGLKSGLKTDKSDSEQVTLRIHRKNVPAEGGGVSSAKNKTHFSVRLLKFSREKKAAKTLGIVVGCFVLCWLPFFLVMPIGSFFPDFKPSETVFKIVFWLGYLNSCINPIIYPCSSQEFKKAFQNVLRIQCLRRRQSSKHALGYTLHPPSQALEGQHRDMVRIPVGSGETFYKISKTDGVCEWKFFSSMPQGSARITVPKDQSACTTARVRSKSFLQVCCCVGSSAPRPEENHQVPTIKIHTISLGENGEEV

Rattus norvegicus [4] = organism: Rattus norvegicus; assay: The compound was evaluated for the conditioned avoidance response data (CAR) in rat intra peritoneally; type: functional
[5] = biological target: Sigma non-opioid intracellular receptor 1 (Rattus norvegicus, UniProt Q9R0C9); assay: Binding affinity towards sigma receptors
Sigma non-opioid intracellular receptor 1, sequence (Q9R0C9 whole entry): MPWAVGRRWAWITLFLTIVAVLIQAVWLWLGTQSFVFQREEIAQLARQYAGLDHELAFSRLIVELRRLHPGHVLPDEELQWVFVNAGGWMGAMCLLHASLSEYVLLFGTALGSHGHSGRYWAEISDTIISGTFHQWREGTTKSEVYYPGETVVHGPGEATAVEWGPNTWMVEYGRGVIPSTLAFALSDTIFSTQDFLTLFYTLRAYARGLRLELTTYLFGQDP

Canis familiaris = assay: The compound is evaluated for inhibition of apomorphine induced emesis in dogs after peroral administration; type: functional, Canis lupus familiaris
[6] = biological target: Serotonin 2 (5-HT2) receptor (Rattus norvegicus, UniProt P30994+P08909+P14842); assay: Binding affinity towards 5-hydroxytryptamine 2 receptor; type: protein assay
Mus musculus = assay: The compound is evaluated for inhibition of apomorphine induced climbing behavior in mice after peroral administration; type: functional; settings: po
Rattus norvegicus [7] = assay: The compound was evaluated for the conditioned avoidance response data (CAR) in rat peroral administration; type: functional; settings: po
[8] = biological target: Muscarinic acetylcholine receptor; assay: Binding affinity towards muscarinic receptors; type: protein assay, Rattus norvegicus
D(1B) dopamine receptor = D(1B) dopamine receptor (Rattus norvegicus, UniProt P25115); assay: Binding affinity towards Dopamine receptor D5 (rat clone)
D(1B) dopamine receptor, sequence (P25115 whole entry): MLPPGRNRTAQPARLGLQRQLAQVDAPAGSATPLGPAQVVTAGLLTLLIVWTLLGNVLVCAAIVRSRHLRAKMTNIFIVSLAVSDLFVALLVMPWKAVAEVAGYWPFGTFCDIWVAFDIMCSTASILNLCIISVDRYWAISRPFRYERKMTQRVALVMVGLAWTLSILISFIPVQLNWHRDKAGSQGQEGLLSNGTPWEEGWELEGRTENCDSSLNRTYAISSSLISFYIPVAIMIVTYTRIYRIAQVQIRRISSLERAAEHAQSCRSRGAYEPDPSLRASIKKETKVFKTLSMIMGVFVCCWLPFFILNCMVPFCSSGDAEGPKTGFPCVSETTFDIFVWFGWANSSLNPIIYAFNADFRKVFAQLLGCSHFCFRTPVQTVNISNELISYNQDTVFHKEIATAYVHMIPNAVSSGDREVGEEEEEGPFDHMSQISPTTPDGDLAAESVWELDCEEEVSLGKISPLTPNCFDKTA

Rattus norvegicus [9] = assay: The compound was evaluated for the conditioned avoidance response data (CAR) in rat intravenous administration at 0.66 mg/kg concentration; type: functional
Rattus norvegicus [10] = assay: The compound is evaluated for inhibition of 8-OH-DPAT induced reciprocal forepaw treading in reserpinized rats after intraperitoneal administration; type: functional; settings: ip
D(3) dopamine receptor = D(3) dopamine receptor (Rattus norvegicus, UniProt P19020); assay: Binding affinity towards baculovirus expressed rat dopamine D3 receptors
D(3) dopamine receptor, sequence (P19020 whole entry): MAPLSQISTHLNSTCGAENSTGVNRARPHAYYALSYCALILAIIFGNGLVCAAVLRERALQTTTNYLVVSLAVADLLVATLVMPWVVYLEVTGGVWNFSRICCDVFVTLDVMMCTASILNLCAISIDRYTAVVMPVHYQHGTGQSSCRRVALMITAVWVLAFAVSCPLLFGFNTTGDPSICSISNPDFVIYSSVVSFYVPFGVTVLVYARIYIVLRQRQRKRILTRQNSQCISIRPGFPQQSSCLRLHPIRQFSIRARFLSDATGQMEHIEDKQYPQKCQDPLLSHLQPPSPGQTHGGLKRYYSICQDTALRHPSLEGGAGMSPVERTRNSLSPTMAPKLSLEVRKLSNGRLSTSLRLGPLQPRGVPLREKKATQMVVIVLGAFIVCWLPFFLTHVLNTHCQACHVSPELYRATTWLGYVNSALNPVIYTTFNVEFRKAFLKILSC

[11] = Partition coefficient (logP); type: physicochemical; settings: octanol/water
[12] = biological target: 5-hydroxytryptamine receptor 1B (Rattus norvegicus, UniProt P28564); assay: Binding affinity towards 5-hydroxytryptamine 1B receptor
5-hydroxytryptamine receptor 1B, sequence (P28564 whole entry): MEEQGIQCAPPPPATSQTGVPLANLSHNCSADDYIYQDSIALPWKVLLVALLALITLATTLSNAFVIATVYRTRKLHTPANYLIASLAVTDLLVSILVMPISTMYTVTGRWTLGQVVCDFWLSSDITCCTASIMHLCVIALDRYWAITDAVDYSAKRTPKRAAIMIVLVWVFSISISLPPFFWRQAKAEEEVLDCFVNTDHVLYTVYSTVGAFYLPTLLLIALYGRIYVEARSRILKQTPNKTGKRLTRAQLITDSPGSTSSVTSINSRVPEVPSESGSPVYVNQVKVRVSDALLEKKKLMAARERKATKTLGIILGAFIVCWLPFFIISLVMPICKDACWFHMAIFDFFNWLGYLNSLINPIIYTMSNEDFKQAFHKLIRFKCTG

Rattus norvegicus [13] = assay: The compound is evaluated for induction of catalepsy in rats at a dose of 100 mg/kg after peroral administration; type: functional; settings: route oral
D(1A) dopamine receptor = D(1A) dopamine receptor (Homo sapiens, UniProt P21728); assay: Binding affinity towards dopamine receptor D1 (human clone)
D(1A) dopamine receptor, sequence (P21728 whole entry): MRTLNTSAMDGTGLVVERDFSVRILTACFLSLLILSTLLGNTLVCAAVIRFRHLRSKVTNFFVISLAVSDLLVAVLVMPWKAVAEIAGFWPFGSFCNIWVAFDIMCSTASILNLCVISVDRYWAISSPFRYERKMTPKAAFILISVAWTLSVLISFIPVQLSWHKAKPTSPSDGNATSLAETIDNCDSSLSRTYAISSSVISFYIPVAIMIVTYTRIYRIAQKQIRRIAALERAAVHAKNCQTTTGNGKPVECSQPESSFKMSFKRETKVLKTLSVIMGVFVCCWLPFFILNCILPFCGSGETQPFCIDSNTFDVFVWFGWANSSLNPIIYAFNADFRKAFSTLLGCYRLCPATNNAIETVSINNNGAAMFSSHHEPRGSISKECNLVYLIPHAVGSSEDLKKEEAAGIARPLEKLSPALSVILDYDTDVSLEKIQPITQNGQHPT

Structure (SMILES): CC(C)Oc1ccccc1N1CCN(Cc2ccccc2C(=O)N2CCCCC2)CC1
Ki [1]: 16 nM
Ki [2]: 6.8 nM
Ki (D(2) dopamine receptor): 37 nM
Ki [3]: 220 nM

Ki [2]: 560 nM
Ki (D(2) dopamine receptor): 100 nM
Ki [3]: 3 nM
Structure (SMILES): CC(C)Oc1ccccc1N1CCN(Cc2ccc(C(=O)N3CCCCC3)cc2)CC1

Ki [1]: 1000 nM
Structure (SMILES): CC(C)Oc1ccccc1N1CCN(Cc2ccc(CN3CCCCC3=O)cc2)CC1

Structure (SMILES): CN1CCN(C2=Nc3cc(Cl)ccc3Nc3ccccc32)CC1 [CLOZAPINE]
ED50 (Rattus norvegicus [4]): 4 mg/kg

Structure (SMILES): CC(C)Oc1ccccc1N1CCN(Cc2cccc(C(=O)N3CCCCC3)c2)CC1 [MAZAPERTINE]
Ki [1]: 17 nM
Ki [5]: > 5000 nM
ED50 (Canis familiaris): 0.038 mg/kg
Ki [6]: 165 nM
ED50 (Mus musculus): 0.6 mg/kg
ED50 (Rattus norvegicus [7]): 13.8 mg/kg
Ki [8]: > 5000 nM
Ki (D(1B) dopamine receptor): > 5000 nM
ED50 (Rattus norvegicus [9]): 0.23 mg/kg
ED50 (Rattus norvegicus [10]): 5.24 mg/kg
Ki (D(3) dopamine receptor): 1.8 nM
logP [11]: 4
Ki [12]: 2880 nM
Catalepsy (Rattus norvegicus [13]): 30%
Ki (D(1A) dopamine receptor): > 5000 nM
